We go through nine compounds from PubChem BioAssay (NCI).

Where “and” joins values, the source holds several entries; their conditions need not be identical. Identical values can stand only once.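 Protocol summary: plate cells (96-well), add compound at 5 concentrations, incubate 48 h, interpolate endpoints linearly. Here, GI50 denotes the concentration required for 50% inhibition of growth. Definition used: TGI = concentration required for complete inhibition of growth.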

Common to all, as to assay: inhibition of tumour cell growth, NCI panel, 48 h
The test system of test [1] is CCRF-CEM leukemia.
The test system of test [2] is HCT-116 colon.
For test [3], the system named is HL-60(TB) leukemia.
Test [4] has as its system HS 578T breast.
For test [5], the system named is MDA-MB-435.
Test [6] relates to MOLT-4 leukemia.
The test system of test [7] is NCI/ADR-RES ovarian.
Test [8] relates to OVCAR-5 ovarian.
The test system of test [9] is SF-295 CNS.
The subject of test [10] is T-47D breast.

For the compound `CC1=CC(=O)C2=C(C)CCC3C(C)C(=O)OC3C12` (centres undefined), the TGI in [1], in [2], in test [3], in test [4], in test [5] and in [6] was greater than 100 µM each time. The TGI in [7], in test [8], in [9] and in [10] was greater than 100 µM each time.
For `CC(C)(CN1CCCCC1)C(=O)/C=C/c1ccc(/C=C/C(=O)C(C)(C)CN2CCCCC2)cc1`, the TGI in test [1] amounted to 0.234 µM; in test [2], 1.1 µM; in [3] it was 0.714 µM; in test [4], 3.2 µM; in [5], 0.984 µM; in test [6], 0.33 µM. Further, the TGI came to 2.36 µM in [7], 1.57 µM in [8], 1.68 µM in [9] and 1.65 µM in test [10].
As to `Cc1cc(O)c(=O)cc2c1C[C@H]1CC(C)(C)/C=C/C[C@]3(C)Oc4cc(=O)c(O)cc(C)c4C[C@H]3C[C@H](O)[C@@]1(C)O2`, the GI50 was 0.0163 µM in test [1]; less than 0.01 µM in test [2]; 0.0249 µM in test [3]; 0.0339 µM in [4]; less than 0.017 µM in test [5]; less than 0.01 µM in test [7]. Further, the results for the GI50 in test [8] and in test [10] were 0.0434 µM and less than 0.01 µM, respectively. The TGI in test [1] is 1.21 µM; in test [2], greater than 100 µM; in [3] it was 0.102 µM; in [4] it was greater than 100 µM; in test [8] it was greater than 100 µM; in [10], 0.0949 µM.
`COc1ccc(/C=C(/C#N)C(N)=O)c(OC)c1`: the TGI in test [1] is greater than 100 µM; in test [2], greater than 100 µM; in [3] it was greater than 100 µM; in [4] it was greater than 100 µM; in test [5], 48.5 µM; in [6] it was greater than 100 µM. In addition, the TGI in test [7], in test [8], in test [9] and in test [10] was greater than 100 µM each time.
In the case of `COc1cc(Nc2nc3cc(N)cc(N)c3nc2-c2ccccc2)cc(OC)c1OC`, the GI50 is 4.4 µM in test [1]; 15.4 µM in test [2]; 6.65 µM in test [3]; 15 µM in test [4]; 7.35 µM in [5]; 2.57 µM in [6]. Besides, the GI50 in [7] was 14.4 µM; in [8], 21.3 µM; in test [9] it was 16 µM; in [10], 6.07 µM. The TGI in test [1] amounted to 42 µM; in test [2], 34.1 µM; in test [3], 23.3 µM; in test [4], 78.1 µM; in test [5], 24.4 µM; in test [6], 18 µM. For the same compound, the TGI in test [7] worked out at 44.1 µM; in test [8] it was 46.7 µM; in test [9] it was 42.8 µM; in test [10] it was 27.3 µM.
As to `COc1ccc(C2=N[C@@H](Cc3ccccc3)C(=O)Nc3ccsc32)cc1`, the GI50 in [1] is 3.46 µM; in test [2], 5.38 µM; in test [3] it was 3.91 µM; in test [4], 3.24 µM; in test [5] it was 1.52 µM; in test [6] it was 3.98 µM. The GI50 in test [7] is 3.84 µM; in test [8], 11.5 µM; in test [10], 5.64 µM. Also, the TGI in test [1] is 28.1 µM; in test [2], 17.7 µM; in test [3], 19.3 µM; in test [4], 28.8 µM; in test [5], 4 µM; in test [6], 19.3 µM. Further, the TGI in test [7] was 33 µM; in test [8], 36.4 µM; in [10], 48.4 µM.
As for `O=Nc1ccc(O)c(=O)cc1`, the GI50 in test [1] was 0.264 µM; in test [2] it was 0.961 µM; in test [3], 0.547 µM; in [4] it was 5.57 µM; in [5] it was 3.28 µM; in test [6] it was 0.821 µM. Moreover, the GI50 is 2.6 µM in test [7], 5.49 µM in test [8], 26.1 µM in [9] and 1.76 µM in test [10]. The TGI in test [1] was 1.19 µM; in test [2], 3.49 µM; in test [3] it was 2.59 µM; in test [4], greater than 44.4 µM; in [5], 13.2 µM; in test [6], 20.8 µM. For the same compound, the TGI in test [7] worked out at 10.6 µM; in test [8] it was 17.8 µM; in test [9], 79.2 µM; in test [10], 4.28 µM.
Regarding `CCC(C)[C@H]1O[C@]2(CC[C@@H]1C)C[C@@H]1C[C@@H](C/C=C(\C)[C@@H](OC3C[C@H](OC)C(O[C@H]4C[C@H](OC)[C@@H](O)[C@H](C)O4)[C@H](C)O3)[C@@H](C)/C=C/C=C3\CO[C@@H]4[C@H](O)C(C)=C[C@@H](C(=O)O1)[C@]34O)O2` (some centres undefined), the GI50 in [1] is 4 µM; in [2], 2.72 µM; in test [3], 2.18 µM; in test [4], 3.76 µM; in [5], 3.89 µM; in test [6], 4.77 µM. The GI50 in test [7] is 3.43 µM; in [8], 2.05 µM; in test [9], 2.54 µM; in [10], 1.57 µM. Further, the TGI in test [1] amounted to 21.2 µM; in test [2], 10.7 µM; in test [3] it was 5.03 µM; in test [4], 20.7 µM; in test [5] it was 15.9 µM; in test [6] it was 20.2 µM. The TGI was found to be 13.7 µM in [7], 5.67 µM in [8], 10.9 µM in test [9] and 3.35 µM in [10].
As for `COc1cc2c(cc1OC)[C@@H](Nc1ccc(C#N)cc1)C1COC(=O)[C@@H]1C2c1cc(OC)c(O)c(OC)c1` (some centres undefined), the GI50 in [1] was 0.0111 µM and 0.0152 µM; in test [2], 6.81 µM and 3.23 µM; in test [8] it was 0.545 µM and 2.05 µM. For the same compound, the TGI in [1] was 0.0709 µM and 0.451 µM; in test [2], 25.8 µM and > 100 µM; in test [3], 0.0606 µM and 0.192 µM; in test [4], 7.54 µM; in test [5], greater than 100 µM; in test [7], greater than 100 µM. For the same compound, the TGI in test [8] is 95 µM and > 100 µM; in [9] it was 2 µM and 3.21 µM; in test [10] it was greater than 100 µM.
